Measurements reported in patent US20050079228A1, “Clear, stable topical compositions of clarithromycin and processes for their preparation” (priority 2003, published 2005).

Columns and labels:
[1] = Solubility of clarithromycin in non-aqueous media on complexation with zinc salt; format: physicochemical; details: molar ratio about 1:0.2 to about 1:2
Description: Clarithromycin and the zinc salt are preferably combined in a molar ratio ranging from about 1:0.2 to about 1:2. This ratio permits the occurrence of effective complexation of the zinc and clarithromycin.

gram-positive bacteria = details: disclosed in U.S. Pat. No. 4,331,803; cited from earlier work

CC[C@H]1OC(=O)[C@H](C)[C@@H](O[C@H]2C[C@@](C)(OC)[C@@H](O)[C@H](C)O2)[C@H](C)[C@@H](O[C@@H]2O[C@H](C)C[C@H](N(C)C)[C@H]2O)[C@](C)(OC)C[C@@H](C)C(=O)[C@H](C)[C@@H](O)[C@]1(C)O [clarithromycin]
Solubility of clarithromycin in a non-aqueous media [1]: increases the solubility | Antibacterial activity against gram-positive bacteria (gram-positive bacteria): strong antibacterial activity
